Structures can show the parent of a compound that is named as a salt.
What was measured:
[1] = test system: PC-3 (prostate cancer); experiment: Chou and Talalay combination assay with beta-caryophyllene; type: cell-based, human; details: anticancer drug in combination with beta-caryophyllene; Chou and Talalay CI; 48 h
Experimental: (§1) Each solution was prepared fresh and use within 1 hour after preparation.
(§2) Cells were then harvested using trypsine-EDTA. Cells were counted using a hemocytometer and resuspended in DMEM+10% FBS medium.
(§3) Proliferation assay: Increasing concentrations of the anticancer agents and/or beta-caryophyllene were added to 96-well plate (100 μL per well). The final concentration of solvent in the culture medium was maintained below 0.5% (volume/volume) to avoid solvent toxicity.
(§4) The cells were incubated for 48 h at 37° C. and 5% CO2. Cytotoxicity was assessed using the resazurin reduction test (O'Brien et al., 2000). Fluorescence was measured on an automated 96-well Fluoroskan Ascent FI™ plate reader (Labsystems) using excitation and emission wavelengths of 530 nm and 590 nm, respectively. Resazurin was then removed.
(§5) Microplates were frozen at −20° C. overnight. Plates were thawed, a volume of 100 μl of 0.01% SDS in water was added to the wells, the plates were shaken at room temperature for 3 hours and then frozen once more at −20° C. overnight. […] Plates were shaken in the dark (at room temperature) for at least 2 hours, and fluorescence was measured on an automated 96-well Fluoroskan Ascent FI™ plate reader (Labsystems) using excitation and emission wavelengths of 360 nm and 460 nm, respectively.

[2] = test system: GL-261 (murine glioblastoma); experiment: as above; type: cell-based; details: anticancer drug in combination with beta-caryophyllene; Chou and Talalay CI; 48 h
Experimental: as §1, §2, §3, §4, §5
(§6) Results were analyzed using the Chou and Talalay method (9) and may be interpreted as follow: Cl>1 represents an antagonist effect of beta-caryophyllene with the corresponding anticancer agent; Cl=1 represents an additive effect of beta-caryophyllene with the corresponding anticancer agent; Cl<1 represents a potentiating effect of beta-caryophyllene with the corresponding anticancer agent.

[3] = test system: B16 (murine melanoma); experiment: as above; type: cell-based; details: anticancer drug in combination with beta-caryophyllene; Chou and Talalay CI; 48 h
Experimental: as §1, §2, §3, §4, §5, §6

[4] = test system: MEL-2 (human melanoma); experiment: as above; type: cell-based; details: anticancer drug in combination with beta-caryophyllene; Chou and Talalay CI; 48 h
Experimental: as §1, §2, §3, §4, §5, §6

[5] = test system: U-251 (human glioblastoma); experiment: as above; type: cell-based; details: anticancer drug in combination with beta-caryophyllene; Chou and Talalay CI; 48 h
Experimental: as §1, §2, §3, §4, §5, §6

[6] = test system: MDA-MB-231 (breast cancer); experiment: as above; type: cell-based, human; details: anticancer drug in combination with beta-caryophyllene; Chou and Talalay CI; 48 h
Experimental: as §1, §2, §3, §4, §5, §6

[7] = test system: A-549 (lung cancer); experiment: as above; type: cell-based, human; details: anticancer drug in combination with beta-caryophyllene; Chou and Talalay CI; 48 h
Experimental: as §1, §2, §3, §4, §5, §6

[8] = test system: PA-1 (ovary cancer); experiment: as above; type: cell-based, human; details: anticancer drug in combination with beta-caryophyllene; Chou and Talalay CI; 48 h
Experimental: as §1, §2, §3, §4, §5, §6

[9] = test system: MCF-7 (breast cancer); experiment: as above; type: cell-based, human; details: anticancer drug in combination with beta-caryophyllene; Chou and Talalay CI; 48 h
Experimental: as §1, §2, §3, §4, §5, §6

[10] = test system: DLD-1 (colon cancer); experiment: as above; type: cell-based, human; details: anticancer drug in combination with beta-caryophyllene; Chou and Talalay CI; 48 h
Experimental: as §1, §2, §3, §4, §5, §6

[11] = test system: MCF-7; experiment: Cytotoxicity of alpha-humulene and isocaryophyllene alone or combined with beta-caryophyllene; type: cell-based, human
Experimental: Combinations of beta-caryophyllene and two other antitumor agents, isocaryophyllene and α-humulene, were also tested as described above with some adaptations. 5×10^3 cells per well were allowed to adhere for 16 hours before treatment. The final concentration of solvent in the culture medium was maintained at 0.5% (volume/volume) to avoid toxicity. These combinations were tested on MCF-7.

[12] = combined with 10 μg/ml of beta-caryophyllene

Row | Compound | Potentiating activity PC-3 [1] | Potentiating activity GL-261 [2] | Potentiating activity B16 [3] | Potentiating activity MEL-2 [4] | Potentiating activity U-251 [5] | Potentiating activity MDA [6] | Potentiating activity A-549 [7] | Potentiating activity PA-1 [8] | Potentiating activity MCF-7 [9] | Potentiating activity DLD-1 [10] | IC50 [11, 12] [µg/mL] | IC50 ([11]; used alone) [µg/mL]
1 | COc1cc([C@@H]2c3cc4c(cc3[C@@H](O[C@@H]3O[C@@H]5CO[C@@H](C)O[C@H]5[C@H](O)[C@H]3O)[C@H]3COC(=O)[C@H]23)OCO4)cc(OC)c1O [Etoposide, etoposide] | (6) (Antagonist effect: CI > 1) | (2) (High: CI < 0.5 to IC50) | (3) (Moderate: 0.5 < CI < 0.8 to IC50) | (3) (Moderate: 0.5 < CI < 0.8 to IC50) | (3) (Moderate: 0.5 < CI < 0.8 to IC50) | (1) (Very High: CI equal or below 1 at IC20 and Cl below 0.6 to IC50) | (4) (Weak: 0.8 < CI < 1 at IC50) | (1) (Very High: potentiating or additive activity to IC20 and CI < 0.6 to IC50) | (1) (Very High: CI equal or below 1 at IC20 and Cl below 0.6 to IC50) | (3) (Moderate: 0.5 < CI < 0.8 at IC50) | – | –
2 | CN(Cc1cnc2nc(N)nc(N)c2n1)c1ccc(C(=O)N[C@@H](CCC(=O)O)C(=O)O)cc1 [Methotrexate] | (6) (Antagonist effect: CI > 1) | (6) (Antagonist effect: CI > 1) | (6) (Antagonist effect: CI > 1) | (1) (Very High: potentiating or additive activity to IC20 and CI < 0.6 to IC50) | (2) (High: CI < 0.5 to IC50) | (6) (Antagonist effect: CI > 1) | (4) (Weak: 0.8 < CI < 1 at IC50) | (1) (Very High: potentiating or additive activity to IC20 and CI < 0.6 to IC50) | (2) (High: CI below 0.5 at IC50) | (4) (Weak: 0.8 < CI < 1 at IC50) | – | –
3 | O=C1c2c(O)ccc(O)c2C(=O)c2c(NCCNCCO)ccc(NCCNCCO)c21 [Mitoxantrone] | (5) (Additive effect: CI = 1) | (1) (Very High: potentiating or additive activity to IC20 and CI < 0.6 to IC50) | (3) (Moderate: 0.5 < CI < 0.8 to IC50) | (3) (Moderate: 0.5 < CI < 0.8 to IC50) | (4) (Weak: 0.8 < CI < 1 to IC50) | (3) (Moderate: 0.5 < CI < 0.8 at IC50) | (5) (Additive effect: CI = 1) | (2) (High: CI < 0.5 to IC50) | (1) (Very High: CI equal or below 1 at IC20 and Cl below 0.6 to IC50) | (5) (Additive effect: CI = 1) | – | –
4 | CC/C(=C(\c1ccccc1)c1ccc(OCCN(C)C)cc1)c1ccccc1 [Tamoxifen, tamoxifen citrate] | (2) (High: CI < 0.5 to IC50) | (2) (High: CI < 0.5 to IC50) | (3) (Moderate: 0.5 < CI < 0.8 to IC50) | (1) (Very High: potentiating or additive activity to IC20 and CI < 0.6 to IC50) | (1) (Very High: potentiating or additive activity to IC20 and CI < 0.6 to IC50) | (5) (Additive effect: CI = 1) | (3) (Moderate: 0.5 < CI < 0.8 at IC50) | (2) (High: CI < 0.5 to IC50) | (6) (Antagonist effect: CI > 1) | (2) (High: CI below 0.5 at IC50) | – | –
5 | COc1cc2ncnc(Nc3cccc(Cl)c3)c2cc1OC [Tyrphostin, Tyrphostin AG 1478] | (2) (High: CI < 0.5 to IC50) | (3) (Moderate: 0.5 < CI < 0.8 to IC50) | (1) (Very High: potentiating or additive activity to IC20 and CI < 0.6 to IC50) | (1) (Very High: potentiating or additive activity to IC20 and CI < 0.6 to IC50) | (1) (Very High: potentiating or additive activity to IC20 and CI < 0.6 to IC50) | (4) (Weak: 0.8 < CI < 1 at IC50) | (3) (Moderate: 0.5 < CI < 0.8 at IC50) | (2) (High: CI < 0.5 to IC50) | (1) (Very High: CI equal or below 1 at IC20 and Cl below 0.6 to IC50) | (1) (Very High: CI equal or below 1 at IC20 and Cl below 0.6 to IC50) | – | –
6 | C=C1CC/C=C(/C)CC[C@@H]2[C@@H]1CC2(C)C [isocaryophyllene] | – | – | – | – | – | – | – | – | – | – | 16 | 30
7 | C/C1=C\CC/C(C)=C/CC(C)(C)/C=C/C1 [∝-humulene, α-humulene] | – | – | – | – | – | – | – | – | – | – | 15 | 25
8 | vinblastine sulfate salt | (3) (Moderate: 0.5 < CI < 0.8 to IC50) | (1) (Very High: potentiating or additive activity to IC20 and CI < 0.6 to IC50) | (1) (Very High: potentiating or additive activity to IC20 and CI < 0.6 to IC50) | (1) (Very High: potentiating or additive activity to IC20 and CI < 0.6 to IC50) | (1) (Very High: potentiating or additive activity to IC20 and CI < 0.6 to IC50) | (1) (Very High: CI equal or below 1 at IC20 and Cl below 0.6 to IC50) | (1) (Very High: CI equal or below 1 at IC20 and Cl below 0.6 to IC50) | (1) (Very High: potentiating or additive activity to IC20 and CI < 0.6 to IC50) | (1) (Very High: CI equal or below 1 at IC20 and Cl below 0.6 to IC50) | (1) (Very High: CI equal or below 1 at IC20 and Cl below 0.6 to IC50) | – | –
9 | vincristine sulfate salt | (1) (Very High: potentiating or additive activity to IC20 and CI < 0.6 to IC50) | (1) (Very High: potentiating or additive activity to IC20 and CI < 0.6 to IC50) | (1) (Very High: potentiating or additive activity to IC20 and CI < 0.6 to IC50) | (1) (Very High: potentiating or additive activity to IC20 and CI < 0.6 to IC50) | (1) (Very High: potentiating or additive activity to IC20 and CI < 0.6 to IC50) | (3) (Moderate: 0.5 < CI < 0.8 at IC50) | (2) (High: CI below 0.5 at IC50) | (1) (Very High: potentiating or additive activity to IC20 and CI < 0.6 to IC50) | (1) (Very High: CI equal or below 1 at IC20 and Cl below 0.6 to IC50) | (1) (Very High: CI equal or below 1 at IC20 and Cl below 0.6 to IC50) | – | –

From patent publication US20110008465A1, “SESQUITERPENE FORMULATIONS, KITS AND METHODS OF USE THEREOF” (priority 2007, published 2011)
